According to patent US10821115B2, “Compounds that inhibit Mcl-1 protein” (priority 2017, dated 2020):
Like-named read-outs stand apart in the source and are kept apart here.

How the values were obtained:
[1] = biological target: recombinant human Mcl-1 (residues 171-327) / Bim interaction (Homo sapiens (Human), UniProt Q07820); test: biochemical; assay type: binding; settings: read-out: Mcl-1 HTRF IC50
[2] = test system: human multiple myeloma cell line, OPM-2; test: Cell viability assay (OPM-2 10 FBS), CellTiter-Glo; assay type: cell-based
In short: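 3000 cells/well, RPMI 1640 + 10% FBS; serial compound dilutions, 16 h, 37 °C/5% CO2.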

[3] = TR-FRET, Mcl-1(171-327) / biotin-Bim (51-76)
[4] = read-out: OPM-2 10% FBS IC50 IP, OPM-2 cells, 10% FBS, 16 h, CellTiter-Glo
[5] = Homo sapiens, OPM-2, 16 h, read-out: OPM-2 10% FBS IC50 IP, OPM-2 cells, 10% FBS, 16 h, CellTiter-Glo

recombinant human Mcl-1 (residues 171-327) / Bim interaction, sequence (Q07820 171-327): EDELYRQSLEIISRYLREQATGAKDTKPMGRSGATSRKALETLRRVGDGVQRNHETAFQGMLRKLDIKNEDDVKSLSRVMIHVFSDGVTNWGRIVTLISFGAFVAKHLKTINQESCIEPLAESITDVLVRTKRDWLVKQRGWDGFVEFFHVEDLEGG

Structure (SMILES)	IC50 [1, 3] [nM]	IC50 [2, 4] [nM]	IC50 [2, 5] [nM]	IC50 [1] [nM]
CO[C@]1(C[C@H](O)C(C)C)/C=C/C[C@H](C)[C@@H](C)S(=O)(=O)NC(=O)c2ccc3c(c2)N(C[C@@H]2CC[C@H]21)C[C@@]1(CCCc2cc(Cl)ccc21)CO3 [Example 100358, (1S,3′R,6′R,7′R,8′E,11′S,12′R)-6-chloro-7′-((2S)-2-hydroxy-3-methylbutyl)-7′-methoxy-11′,12′-dimethyl-3,4-dihydro-2H,15′H-spiro[naphthalene-1,22′-[20]oxa[13]thia[1,14]diazatetracyclo [14.7.2.0~3,6~.0~19,24~]pentacosa[8,16,18,24]tetraen]-15′-one 13′,13′-dioxide]	0.118	81		
CO[C@]1(C[C@H](O)C(C)C)/C=C/C[C@H](C)[C@@H](C)S(=O)(=O)NC(=O)c2ccc3c(c2)N(C[C@@H]2CC[C@H]21)C[C@@]1(CCCc2cc(Cl)ccc21)CO3 [Example 100359, (1S,3′R,6′R,7′R,8′E,11′S,12′R)-6-chloro-7′-((2S)-2-hydroxy-3-methylbutyl)-7′-methoxy-11′,12′-dimethyl-3,4-dihydro-2H,15′H-spiro[naphthalene-1,22′-[20]oxa[13]thia[1,14]diazatetracyclo [14.7.2.0~3,6~.0~19,24~]pentacosa[8,16,18,24]tetraen]-15′-one 13′,13′-dioxide]	1.2	1540		
C[C@@H]1[C@@H](C)C/C=C/[C@](O)(c2ccncn2)[C@@H]2CC[C@H]2CN2C[C@@]3(CCCc4cc(Cl)ccc43)COc3ccc(cc32)C(=O)NS1(=O)=O [Example 100361, (1S,3′R,6′R,7′R,8′E,11′S,12′R)-6-chloro-7′-hydroxy-11′,12′-dimethyl-7′-(4-pyrimidinyl)-3,4-dihydro-2H,15′H-spiro[naphthalene-1,22′-[20]oxa[13]thia[1,14]diazatetracyclo [14.7.2.0~3,6~.0~19,24~]pentacosa[8,16,18,24]tetraen]-15′-one 13′,13′-dioxide]	0.208		155	
CO[C@]1(CC(=O)C(C)C)/C=C/C[C@H](C)[C@@H](C)S(=O)(=O)NC(=O)c2ccc3c(c2)N(C[C@@H]2CC[C@H]21)C[C@@]1(CCCc2cc(Cl)ccc21)CO3 [Example 100363, (1S,3′R,6′R,7′R,8′E,11′S,12′R)-6-chloro-7′-methoxy-11′,12′-dimethyl-7′-(3-methyl-2-oxobutyl)-3,4-dihydro-2H,15′H-spiro[naphthalene-1,22′-[20]oxa[13]thia[1,14]diazatetracyclo [14.7.2.0~3,6~.0~19,24~]pentacosa[8,16,18,24]tetraen]-15′-one 13′,13′-dioxide]			3810	1.38
CO[C@@]1(CCOS(C)(=O)=O)/C=C/C[C@H](C)[C@@H](C)S(=O)(=O)NC(=O)c2ccc3c(c2)N(C[C@@H]2CC[C@H]21)C[C@@]1(CCCc2cc(Cl)ccc21)CO3 [Example 100364, 2-((1S,3′R,6′R,7′S,8′E,11′S,12′R)-6-chloro-7′-methoxy-11′,12′-dimethyl-13′,13′-dioxido-15′-oxo-3,4-dihydro-2H-spiro[naphthalene-1,22′-[20]oxa[13]thia[1,14]diazatetracyclo [14.7.2.0~3,6~.0~19,24~]pentacosa[8,16,18,24]tetraen]-7′-yl)ethyl methanesulfonate]	1.16		1680	
CO[C@]1(CCN2CCOCC2)/C=C/C[C@H](C)[C@@H](C)S(=O)(=O)NC(=O)c2ccc3c(c2)N(C[C@@H]2CC[C@H]21)C[C@@]1(CCCc2cc(Cl)ccc21)CO3 [Example 100365, (1S,3′R,6′R,7′R,8′E,11′S,12′R)-6-chloro-7′-methoxy-11′,12′-dimethyl-7′-(2-(4-morpholinyl)ethyl)-3,4-dihydro-2H,15′H-spiro[naphthalene-1,22′-[20]oxa[13]thia[1,14]diazatetracyclo [14.7.2.0~3,6~.0~19,24~]pentacosa[8,16,18,24]tetraen]-15′-one 13′,13′-dioxide]	0.257		245	
C[C@@H]1[C@@H](C)C/C=C/[C@](O)(c2ccncc2F)[C@@H]2CC[C@H]2CN2C[C@@]3(CCCc4cc(Cl)ccc43)COc3ccc(cc32)C(=O)NS1(=O)=O [Example 100368, (1S,3′R,6′R,7′R,8′E,11′S,12′R)-6-chloro-7′-(3-fluoro-4-pyridinyl)-7′-hydroxy-11′,12′-dimethyl-3,4-dihydro-2H,15′H-spiro[naphthalene-1,22′-[20]oxa[13]thia[1,14]diazatetracyclo [14.7.2.0~3,6~.0~19,24~]pentacosa[8,16,18,24]tetraen]-15′-one 13′,13′-dioxide]	0.377		611	
COCC[C@]1(OC)/C=C/C[C@H](C)[C@@H](C)S(=O)(=O)NC(=O)c2ccc3c(c2)N(C[C@@H]2CC[C@H]21)C[C@@]1(CCCc2cc(Cl)ccc21)CO3 [Example 100369, (1S,3′R,6′R,7′S,8′E,11′S,12′R)-6-chloro-7′-methoxy-7′-(2-methoxyethyl)-11′,12′-dimethyl-3,4-dihydro-2H,15′H-spiro[naphthalene-1,22′-[20]oxa[13]thia[1,14]diazatetracyclo [14.7.2.0~3,6~.0~19,24~]pentacosa[8,16,18,24]tetraen]-15′-one 13′,13′-dioxide]	2.83		9920	
C[C@@H]1[C@@H](C)CCC[C@@](O)(C#CCCN2CCOCC2)[C@@H]2CC[C@H]2CN2C[C@@]3(CCCc4cc(Cl)ccc43)COc3ccc(cc32)C(=O)NS1(=O)=O [Example 100371, (1S,3′R,6′R,7′S,11′S,12′R)-6-chloro-7′-hydroxy-11′,12′-dimethyl-7′-(4-(4-morpholinyl)-1-butyn-1-yl)-3,4-dihydro-2H,15′H-spiro[naphthalene-1,22′-[20]oxa[13]thia[1,14]diazatetracyclo [14.7.2.0~3,6~.0~19,24~]pentacosa[16,18,24]trien]-15′-one 13′,13′-dioxide]	0.39	307		
C[C@@H]1[C@@H](C)CCC[C@@](O)(C#CCCN2CCOCC2)[C@@H]2CC[C@H]2CN2C[C@@]3(CCCc4cc(Cl)ccc43)COc3ccc(cc32)C(=O)NS1(=O)=O [Example 100372, (1S,3′R,6′R,7′S,11S,12R)-6-chloro-7′-hydroxy-11′,12′-dimethyl-7′-(4-(4-morpholinyl)-1-butyn-1-yl)-3,4-dihydro-2H,15′H-spiro[naphthalene-1,22′-[20]oxa[13]thia[1,14]diazatetracyclo [14.7.2.0~3,6~.0~19,24~]pentacosa[16,18,24]trien]-15′-one 13′,13′-dioxide]	0.165	833		
CO[C@@]1(CC(=O)C(C)C)/C=C/C[C@H](C)[C@@H](C)S(=O)(=O)NC(=O)c2ccc3c(c2)N(C[C@@H]2CC[C@H]21)C[C@@]1(CCCc2cc(Cl)ccc21)CO3 [Example 100373, (1S,3′R,6′R,7′S,8′E,11′S,12′R)-6-chloro-7′-methoxy-11′,12′-dimethyl-7′-(3-methyl-2-oxobutyl)-3,4-dihydro-2H,15′H-spiro[naphthalene-1,22′-[20]oxa[13]thia[1,14]diazatetracyclo [14.7.2.0~3,6~.0~19,24~]pentacosa[8,16,18,24]tetraen]-15′-one 13′,13′-dioxide]			736	0.318
CO[C@@]1(CC(=O)N(C)CC(F)(F)F)/C=C/C[C@H](C)[C@@H](C)S(=O)(=O)NC(=O)c2ccc3c(c2)N(C[C@@H]2CC[C@H]21)C[C@@]1(CCCc2cc(Cl)ccc21)CO3 [Example 100375, 2-((1S,3′R,6′R,7′S,8′E,11′S,12′R)-6-chloro-7′-methoxy-11′,12′-dimethyl-13′,13′-dioxido-15′-oxo-3,4-dihydro-2H-spiro[naphthalene-1,22′-[20]oxa[13]thia[1,14]diazatetracyclo [14.7.2.0~3,6~.0~19,24~]pentacosa[8,16,18,24]tetraen]-7′-yl)-N-methyl-N-(2,2,2-trifluoroethyl)acetamide]	0.07		176	
CO[C@@]1(CC(=O)N2CCN(C)CC2)/C=C/C[C@H](C)[C@@H](C)S(=O)(=O)NC(=O)c2ccc3c(c2)N(C[C@@H]2CC[C@H]21)C[C@@]1(CCCc2cc(Cl)ccc21)CO3 [Example 100376, (1S,3′R,6′R,7′S,8′E,11′S,12′R)-6-chloro-7′-methoxy-11′,12′-dimethyl-7′-(2-(4-methyl-1-piperazinyl)-2-oxoethyl)-3,4-dihydro-2H,15′H-spiro[naphthalene-1,22′-[20]oxa[13]thia[1,14]diazatetracyclo [14.7.2.0~3,6~.0~19,24~]pentacosa[8,16,18,24]tetraen]-15′-one 13′,13′-dioxide]	0.15		362	
CO[C@@]1(CC(=O)N(C)CCN2CCOCC2)/C=C/C[C@H](C)[C@@H](C)S(=O)(=O)NC(=O)c2ccc3c(c2)N(C[C@@H]2CC[C@H]21)C[C@@]1(CCCc2cc(Cl)ccc21)CO3 [Example 100377, 2-((1S,3′R,6′R,7′S,8′E,11′S,12′R)-6-chloro-7′-methoxy-11′,12′-dimethyl-13′,13′-dioxido-15′-oxo-3,4-dihydro-2H-spiro[naphthalene-1,22′-[20]oxa[13]thia[1,14]diazatetracyclo [14.7.2.0~3,6~.0~19,24~]pentacosa[8,16,18,24]tetraen]-7′-yl)-N-methyl-N-(2-(4-morpholinyl)ethyl)acetamide]	0.107		182	
COC[C@]1(O)/C=C/C[C@H](C)[C@@H](C)S(=O)(=O)NC(=O)c2ccc3c(c2)N(C[C@@H]2CC[C@H]21)C[C@@]1(CCCc2cc(Cl)ccc21)CO3 [Example 100378, (1S,3′R,6′R,7′S,8′E,11′S,12′R)-6-chloro-7′-hydroxy-7′-(methoxymethyl)-11′,12′-dimethyl-3,4-dihydro-2H,15′H-spiro[naphthalene-1,22′-[20]oxa[13]thia[1,14]diazatetracyclo [14.7.2.0~3,6~.0~19,24~]pentacosa[8,16,18,24]tetraen]-15′-one 13′,13′-dioxide]	0.037		111	
